Results published in US8293914B2, “4-OXO,1-4-dihydroquinoline M1 receptor positive allosteric modulators” (Merck Sharp & Dohme Corp., priority 2008, dated 2012).

Molecular target: T1, acetylcholine muscarinic M1 receptor (CHOnfat/hM1 cells) (Homo sapiens, UniProt P11229)
T1 construct: expressed in transfected cells; host or cells: CHOnfat (CHO) cells expressing hM1
T1 sequence (P11229 1-460): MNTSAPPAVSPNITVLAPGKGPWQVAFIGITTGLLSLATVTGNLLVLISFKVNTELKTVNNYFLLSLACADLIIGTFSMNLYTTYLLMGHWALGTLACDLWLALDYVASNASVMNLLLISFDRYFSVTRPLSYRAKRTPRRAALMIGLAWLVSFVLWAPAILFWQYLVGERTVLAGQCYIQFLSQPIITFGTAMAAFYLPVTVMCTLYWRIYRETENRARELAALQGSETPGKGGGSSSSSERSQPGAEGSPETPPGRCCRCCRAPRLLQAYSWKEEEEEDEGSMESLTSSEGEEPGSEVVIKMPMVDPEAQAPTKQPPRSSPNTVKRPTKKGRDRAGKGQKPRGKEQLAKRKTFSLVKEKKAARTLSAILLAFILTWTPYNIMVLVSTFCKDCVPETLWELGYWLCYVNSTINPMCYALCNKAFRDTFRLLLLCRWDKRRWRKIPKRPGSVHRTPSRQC
Assay: muscarinic M1 FLIPR calcium assay for positive allosteric modulator activity (acetylcholine EC20)
Format: cell-based
Conditions: FLIPR intracellular Ca2+, 4 min preincubation, then EC20 acetylcholine (3 nM final), read-out: IP Value (inflection point)
Method: The assay studies the effect of one or several concentrations of test compounds on basal or acetylcholine-stimulated Ca^2+ levels using FLIPR.
Compounds are prepared and subjected to a preincubation period of 4 min. Thereafter, a single EC20 concentration of acetylcholine is added to each well (3 nM final). The intracellular Ca^2+ level of each sample is measured and compared to an acetylcholine control to determine any modulatory activity.
Cells: CHOnfat/hM1, hM2, hM3 or hM4 cells are plated 24 hr before the assay at a density of 18,000 cells/well (100 μL) in a 384 well plate. CHOnfat/hM1 and CHOnfat/hM3 Growth Medium: 90% DMEM (Hi Glucose); 10% HI FBS; 2 mM L-glutamine; 0.1 mM NEAA; Pen-Strep; and 1 mg/ml Geneticin, are added. For M2Gqi5CHOnfat and M4Gqi5CHOnfat cells, an additional 600 μg/ml hygromycin is added.
Buffers. […] Dye Loading Buffer: Assay Buffer plus 1% Fetal Bovine Serum and Fluo-4AM/Pluronic Acid Mixture. […] 20% Pluronic Acid Solution stock, with a concentration of 0.04% in Buffer, 0.02% in Assay.
65 μL of 2 mM Fluo-4AM are mixed with 130 μL of 20% Pluronic Acid. The resulting solution and 650 μL FBS is added to the assay buffer for a total volume of 65 mL. Positive Controls: 4-Br-A23187: 10 mM in DMSO; final concentration 10 μM. Acetylcholine: 10 mM in water, working stock at both 20 μM and 30 μM in assay buffer, final concentration of 10 μM. This is used to check the maximum stimulation of the CHOK1/hM1 cells. 20 μM (2×) acetylcholine is added in the preincubation part of the assay, and the 30 μM (3×) stock is added in the second part. (EC20)Acetylcholine: 10 mM in water, working stock of 9 nM (3×), and final concentration in assay is 3 nM. This is used after the preincubation with test compounds. Addition of the EC20 Acetylcholine to each well with a test compound will ascertain any modulator activity. 24 wells contain 3 nM Acetylcholine alone as a control.
Four 96-well plates are combined into a 384-well plate using Mosquito Nanolitre Pipetting System by transferring 1 μl of serial diluted compounds to each well, and 1 mM acetylcholine (100× stock concentration) were added as a control. Using Temo, 49 μl assay buffer is added to each well of the 384-well plate right before assay.
In a 96-well Whatman 2 ml Uniplate, 9 nM Acetylcholine (3×) is pipetted into wells corresponding to the screening compounds, and into control wells. The 30 μM acetylcholine control (3×) is added into control wells, and the 3× agonist plate is transferred into a 384-well plate.
Cells are washed three times with 100 μL, of buffer, leaving 30 μL of buffer in each well. Using Multimek, 30 μL of Dye Loading Buffer is added into each well and incubated at 37° C., 5% CO2 for up to one hr.
After 60 min, the cells are washed three times with 100 μL of buffer, leaving 30 μL of buffer in each well. The cell plate, screening plate, and agonist addition plates are placed on the platform in the FLIPR and the door is closed. A signal test to check background fluorescence and basal fluorescence signal is performed. Laser intensity is adjusted if necessary.
4 min of preincubation with the test compounds is provided to determine any agonist activity on the M1 receptor by comparison to the 1 mM acetylcholine control. After preincubation, the EC20 value of acetylcholine (3 nM final) is added to determine any modulator activity.
The inflection point is calculated from the FLIPR values, and is a measure of activity.

Row | EC50 [nM] | SMILES
1 | 495 | O=C(O)c1cn(Cc2ccc(-c3ccc(F)nc3)cn2)c2cccc(F)c2c1=O [Example 7]
2 | 2320 | O=C(O)c1cn(Cc2ncc(-c3ccccc3O)cn2)c2c(F)cccc2c1=O [Example 293]
3 | 202 | O=C(O)c1cn(Cc2ccc(-c3ccc(F)nc3)cn2)c2c(F)cccc2c1=O [Example 1, 5-{6-[(3-Carboxy-8-fluoro-4-oxoquinolin-1(4H)-yl)methyl]pyridine-3-yl}-2-fluoropyridinium]
4 | 103 | Nc1ccc(-c2ccc(Cn3cc(C(=O)O)c(=O)c4c(F)cccc43)nc2)cn1 [Example 10]
5 | 14300 | O=C(O)c1cn(Cc2ccc(N3CCCCC3)nn2)c2c(F)cccc2c1=O [Example 372, 8-Fluoro-4-oxo-1-[(6-piperidin-1-ylpyridazin-3-yl)methyl]-1,4-dihydroquinoline-3-carboxylic acid]
6 | 65 | CCn1cc(-c2ccc(Cn3cc(C(=O)O)c(=O)c4c(F)ccc(F)c43)nc2)cn1 [Example 2]
7 | 7190 | O=C(O)c1cn(Cc2cnc(-c3ccncc3)cn2)c2c(F)cccc2c1=O [Example 315]
8 | 37 | Cn1ccc2cc(-c3ccc(Cn4cc(C(=O)O)c(=O)c5cccc(F)c54)cn3)ccc21 [Example 234]
9 | 2890 | O=C(O)c1cn(Cc2c(F)cncc2F)c2c(F)cccc2c1=O [Example 283]
10 | 302 | COc1ccc(-c2ccc(Cn3cc(C(=O)O)c(=O)c4c(F)ccc(F)c43)nc2)cn1 [Example 134]
11 | ~80000 | CS(=O)(=O)c1ccc(Cn2cc(C(=O)O)c(=O)c3cccc(F)c32)nn1 [Example 373, 8-Fluoro-1-{[6-(methylsulfonyl)pyridazin-3-yl]methyl}-4-oxo-1,4-dihydroquinoline-3-carboxylic acid]
12 | 24 | Nc1cccc(-c2ccc(Cn3cc(C(=O)O)c(=O)c4cccc(F)c43)nc2)c1 [Example 55]
13 | 1900 | O=C(O)c1cn(Cc2ccc(-n3cccn3)cn2)c2c(F)cccc2c1=O [Example 68]
14 | 24800 | C[S+]([O-])c1ccc(Cn2cc(C(=O)O)c(=O)c3cccc(F)c32)nn1 (stereo not shown) [Example 352]
15 | 382 | O=C(O)c1cn(Cc2ccc(-c3cccc(O)c3)nn2)c2c(F)cccc2c1=O [Example 319]
16 | 2240 | O=C(O)c1cn(Cc2cccc(-n3cccn3)n2)c2c(F)ccc(F)c2c1=O [Example 160]
17 | 99 | CS(=O)(=O)Nc1cccc(-c2ccc(Cn3cc(C(=O)O)c(=O)c4cccc(F)c43)nc2)c1 [Example 101]
18 | 100 | O=C(O)c1cn(Cc2ccc(-c3ccc(N4CCOCC4)nc3)cn2)c2cccc(F)c2c1=O [Example 27]
19 | 8660 | O=C(O)c1cn(Cc2ccc(-c3ccccc3F)nn2)c2c(F)cccc2c1=O [Example 329]
20 | 745 | O=C(O)c1cn(Cc2ccc(-c3ccc(F)cc3F)cn2)c2c(F)cccc2c1=O [Example 108]
21 | 114 | O=C(O)c1cn(Cc2ccc(-c3cnn(CC(F)(F)F)c3)cn2)c2c(F)ccc(F)c2c1=O [Example 156]
22 | 5250 | O=C(O)c1cn(Cc2ccc(N3CCC3)nn2)c2c(F)cccc2c1=O [Example 334]
